Tests used:
Format in all cases: in vivo
Aphis craccivoral = test: Insecticidal activities to aphids, immersion method
In short: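 Immersion assay: compound diluted from 10 g/L DMF stock to 500 ppm in 0.2 mL/L Triton X-100, sprout-feeding wingless adults dipped 5 s. Kept at 23° C, three repeats; 24 h mortality calculated relative to surviving Triton-treated controls.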

Nilaparvata lugens = test: Insecticidal activities to plant hopper, spraying method
In short: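 Spray test: acetone solutions of 500 down to 0.79 ppm, 2 ml per tumbler holding 10 planthoppers introduced 6 h earlier, triplicate, aqueous acetone as control. Mortality at 24 h calculated from survivors relative to control.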

[1] = system: Pseudaletia separate Walker; test: Insecticidal activities to armyworm, leaf dipping and feeding
In short: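 Armyworms (10 per tumbler, 3 replicates) ate fresh maize leaves that had been immersed for 3 seconds in compound solutions of 1.57-500 ppm in acetone, or in aqueous acetone for controls. Kills were scored at 24 h, and mortality was calculated relative to survivors in the control group.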

Plutella xylostella = test: Insecticidal activities to diamondback moth, feeding dipped leaves
In short: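 Mortality was scored 24 h after larvae of Plutella xylostella (10 per treatment, 3 repeats) fed on cabbage leaves immersed 3 s in test solution and dried at room temperature. It was computed relative to survivors in a water-treated control.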

[2] = 500 ppm, spraying method, counted after 24 hours

SMILES	Aphis craccivoral Mortality (%) 500 ppm (Aphis craccivoral; in vivo) [%]	Nilaparvata lugens Mortality (%) 500 ppm (Nilaparvata lugens; in vivo) [%]	Pseudaletia separate Walker Mortality (%) 500 ppm ([1]; in vivo) [%]	Plutella xylostella Mortality (%) 500 ppm (Plutella xylostella; in vivo) [%]	other results
C[N+]1=C(C(=Cc2ccc(Br)o2)[N+](=O)[O-])N(Cc2ccc(Cl)nc2)CC1.[Cl-] [Compound 248]	100	100	100	100	–
Cn1cccc1C=C(C1=[N+](C)CCN1Cc1ccc(Cl)nc1)[N+](=O)[O-].[Cl-] [Compound 275]	100	100	100	100	–
C[N+]1=C(C(=Cc2cccs2)[N+](=O)[O-])N(Cc2ccc(Cl)nc2)CC1.[Cl-] [Compound 259]	100	100	100	100	–
CC(c1ccc(Cl)nc1)N1CCN=C1C(=Cc1ccc(Br)o1)[N+](=O)[O-] (racemic) [Compound 126]	100	100	100	100	–
C[N+]1=C(C(=Cc2cc(Cl)cs2)[N+](=O)[O-])N(Cc2ccc(Cl)nc2)CC1.[Cl-] [Compound 264]	100	100	100	100	–
CC[N+]1=C(C(=Cc2ccsc2)[N+](=O)[O-])N(Cc2ccc(Cl)nc2)CC1.[Cl-] [Compound 292]	100	100	100	100	–
C[N+]1=C(C(=Cc2oc(Br)cc2Br)[N+](=O)[O-])N(Cc2ccc(Cl)nc2)CC1.[Cl-] [Compound 254]	100	100	100	100	–
CC[N+]1=C(C(=Cc2ccc(Br)o2)[N+](=O)[O-])N(Cc2ccc(Cl)nc2)CC1.[Cl-] [Compound 289]	100	100	100	100	–
O=[N+]([O-])C(=Cc1cnc[nH]1)C1=NCCN1Cc1ccc(Cl)nc1 [Compound 36]	98	89	100	100	–
CC[N+]1=C(C(=Cc2ccco2)[N+](=O)[O-])N(Cc2ccc(Cl)nc2)CC1.[Cl-] [Compound 285]	100	100	100	100	–
C[N+]1=C(C(=Cc2ccoc2)[N+](=O)[O-])N(Cc2ccc(Cl)nc2)CC1.[Cl-] [Compound 245]	100	100	100	100	–
O=[N+]([O-])C(=Cc1ccc(Cl)s1)C1=NCCCN1Cc1ccc(Cl)nc1 [Compound 64]	100	100	100	100	–
CC(c1ccc(Cl)nc1)N1CCN=C1C(=Cc1ccc(Cl)s1)[N+](=O)[O-] (racemic) [Compound 130]	100	100	100	76	–
Cc1ccc(C=C(C2=NCCN2Cc2ccc(Cl)nc2)[N+](=O)[O-])s1 [Compound 27]	100	100	100	100	–
C[N+]1=C(C(=Cc2ccco2)[N+](=O)[O-])N(Cc2ccc(Cl)nc2)CC1.[Cl-] [Compound 244]	100	100	100	100	–
CCN(Cc1ccc(Cl)nc1)C(=N\C)/C(=C\c1ccc[nH]1)[N+](=O)[O-] [Compound 160, N-((6-chloropyridin-3-yl)methyl)-N-ethyl-N′-methyl-2-nitro-3-(1H-pyrrol-2-yl) acrylamidine]	–	–	–	–	mortality at 500 ppm (Aphis craccivoral; Aphis, 500 ppm, immersion 5 seconds, counted after 24 hours, read-out: Aphis craccivoral Mortality (%) 500 ppm): 56%; mortality at 500 ppm (Nilaparvata lugens; Nilaparvata lugens, 500 ppm, spraying, counted after 24 hours, read-out: Nilaparvata lugens Mortality (%) 500 ppm): 54%; mortality at 500 ppm ([1]; Zea mays, foliar, 500 ppm, dipped maize leaves fed, counted after 24 hours, read-out: Pseudaletia separate Walker Mortality (%) 500 ppm): 64%; mortality at 500 ppm (Plutella xylostella; Plutella xylostella, 500 ppm, dipped cabbage leaves fed, counted after 24 hours, read-out: Plutella xylostella Mortality (%) 500 ppm): 100%

SMILES	Aphis craccivoral Mortality (%) 500 ppm (Aphis craccivoral; in vivo) [%]	Nilaparvata lugens Mortality (%) 500 ppm (Nilaparvata lugens; in vivo) [%]	Pseudaletia separate Walker Mortality (%) 500 ppm ([1]; in vivo) [%]	Plutella xylostella Mortality (%) 500 ppm (Plutella xylostella; in vivo) [%]	other results
O=[N+]([O-])C(=Cc1ccc([N+](=O)[O-])s1)C1=NCCN1Cc1cnc(Cl)s1 [Compound 85]	100	100	100	100	–
O=[N+]([O-])C(=Cc1cc(Cl)co1)C1=NCCCN1Cc1ccc(Cl)nc1 [Compound 51]	100	100	100	100	–
C[N+]1=C(C(=Cc2sc(Br)cc2Br)[N+](=O)[O-])N(Cc2ccc(Cl)nc2)CC1.[Cl-] [Compound 269]	100	100	100	100	–
O=[N+]([O-])C(=Cc1cc(Br)c(Br)o1)C1=NCCN1Cc1ccccc1 [Compound 110]	58	23	85	51	–
C[N+]1=C(C(=Cc2cc(Br)cs2)[N+](=O)[O-])N(Cc2ccc(Cl)nc2)CC1.[Cl-] [Compound 265]	100	100	100	100	–
CC(=C(C1=NCCN1C(C)c1ccc(Cl)nc1)[N+](=O)[O-])c1cccs1 (racemic) [Compound 138]	100	100	100	100	–
C[N+]1=C(C(=Cc2cc(Br)c(Br)o2)[N+](=O)[O-])N(Cc2ccc(Cl)nc2)CC1.[Cl-] [Compound 253]	100	100	100	100	–
O=[N+]([O-])C(=Cc1ccc(Br)s1)C1=NCCN1Cc1ccc(Cl)nc1 [Compound 20]	100	100	100	100	–
C[N+]1=C(C(=Cc2cc(Cl)c(Cl)s2)[N+](=O)[O-])N(Cc2ccc(Cl)nc2)CC1.[Cl-] [Compound 266]	100	100	100	100	–
N#CC(=Cc1sc(Cl)cc1Cl)C1=NCCN1Cc1ccc(Cl)nc1 [Compound 150]	–	–	–	–	Aphis craccivoral Mortality (%) (Aphis craccivoral; 500 ppm, immersion method): 95%; Nilaparvata lugens Mortality (%) (Nilaparvata lugens; [2]): 100%; Pseudaletia separate Walker Mortality (%) ([1]; 500 ppm, maize leaf dipping and feeding, counted after 24 hours): 100%; Plutella xylostella Mortality (%) (Plutella xylostella; 500 ppm, feeding dipped cabbage leaves, counted after 24 hours): 100%
O=[N+]([O-])C(=Cc1sc(Cl)cc1Cl)C1=NCCN1Cc1ccc(Cl)nc1 [Compound 24]	–	–	–	–	Aphis craccivoral Mortality (%) 500 ppm (Aphis craccivoral; 500 ppm, immersion method): 100%; Nilaparvata lugens Mortality (%) 500 ppm (Nilaparvata lugens; [2]): 100%; Pseudaletia separate Walker Mortality (%) 500 ppm ([1]; 500 ppm, leaf dipping and feeding, counted after 24 hours): 100%; Plutella xylostella Mortality (%) 500 ppm (Plutella xylostella; 500 ppm, feeding dipped leaves, counted after 24 hours): 100%
O=[N+]([O-])C(=Cc1ccco1)C1=NCCN1Cc1ccccc1 [Compound 103]	86	100	70	25	–
O=[N+]([O-])C(=Cc1ccc(Cl)o1)C1=NCCN1Cc1cnc(Cl)s1 [Compound 71]	100	100	100	100	–
N#CC(=Cc1cc(Cl)c(Cl)s1)C1=NCCN1Cc1ccc(Cl)nc1 [Compound 149]	94	100	97	100	–
CC(c1ccc(Cl)nc1)N1CCN=C1C(=Cc1ccco1)[N+](=O)[O-] (racemic) [Compound 121]	100	100	100	56	–
O=[N+]([O-])C(=Cc1ccoc1)C1=NCCN1Cc1ccccc1 [Compound 104]	96	100	79	81	–

Reference: patent US8232407B2, “Nitrogenous heterocyclic compounds with insecticidal activity, and the preparation and use thereof” (East China University of Science and Technology, priority 2008, dated 2012)
